Literature values as cited in patent publication US6713027B2, “Ozonator for sterilizing, decontaminating, disinfecting, and/or sanitizing surgical instruments” (Electroclave, priority 2001, dated 2004).

System: pathogenic bacteria and viruses
Conditions: in water; compared with chlorine

## O=[O+][O-] [O3, ozone]
  rate of eliminating pathogenic bacteria and viruses from water relative to Cl (chlorine): 3,125 times
